Assay results taken from US9433621B2, “Substituted pyridine and pyrimidine derivatives and their use in treating viral infections” (Merck Sharp & Dohme Corp., priority 2010, dated 2016).

Tested on: HCV replicon
Assay: Cell-Based HCV Replicon Assay
Details: Hepatitis C virus; HCV Replicon assay, EC90 range, Table VI; read-out: EC90
Summary of the method: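 EC50 and EC90 taken from sigmoid fits of ΔCT (5B minus GAPDH) as the concentrations raising ΔCT by 1 and 3.2 over baseline, via multiplex real-time RT-PCR on lysates after 3 days. Replicon cells at 5000/well; 10 two-fold dilutions from 25–1 μM, 0.5% DMSO, 10% FBS.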

Compound | EC90
CCO[C@@H](CNc1nc(C)c(-c2nc3c(C4CC4)nccc3s2)c(N[C@@H]2C[C@H](CO)[C@@H](O)[C@H]2O)n1)C(F)(F)F [Example 5234] | < 500 nM
CCO[C@@H](CNc1nc(C)c(-c2nc3c(C)nccc3s2)c(N[C@@H]2C[C@H](C(C)(C)O)[C@@H](O)[C@H]2O)n1)C(F)(F)F [Example 5235] | < 500 nM
Cc1nc(NCc2c(F)cc(F)cc2F)nc(N[C@@H]2C[C@H](C3(O)CC3)[C@@H](O)[C@H]2O)c1-c1nc2c(C)nccc2s1 [Example 5236] | < 500 nM
Cc1nc(NCCSC(C)(C)C)nc(N[C@@H]2C[C@H](C3(O)CC3)[C@@H](O)[C@H]2O)c1-c1nc2c(C)nccc2s1 [Example 5237] | < 500 nM
CO[C@H](C)CNc1nc(C)c(-c2nc3c(C)nccc3s2)c(N[C@@H]2C[C@H](C3(O)CC3)[C@@H](O)[C@H]2O)n1 [Example 5238] | < 500 nM
Cc1nc(NCC2CC2)nc(N[C@@H]2C[C@H](C3(O)CC3)[C@@H](O)[C@H]2O)c1-c1nc2c(C)nccc2s1 [Example 5239] | < 500 nM
COC[C@@H](C)Nc1nc(C)c(-c2nc3c(C)nccc3s2)c(N[C@@H]2C[C@H](C3(O)CC3)[C@@H](O)[C@H]2O)n1 [Example 5240] | < 500 nM
CSCCNc1nc(C)c(-c2nc3c(C)nccc3s2)c(N[C@@H]2C[C@H](C(C)(C)O)[C@@H](O)[C@H]2O)n1 [Example 5241] | < 500 nM
Cc1nc(N)nc(N[C@@H]2C[C@H](C(C)(C)O)[C@@H](O)[C@H]2O)c1-c1nc2c(C)nccc2s1 [Example 5242] | < 500 nM
CCOCCNc1nc(C)c(-c2nc3c(C)nccc3s2)c(N[C@@H]2C[C@H](C(O)(COC)COC)[C@@H](O)[C@H]2O)n1 [Example 5243] | < 500 nM
COC[C@@H](C)Nc1nc(C)c(-c2nc3c(C)nccc3s2)c(N[C@@H]2C[C@H](C(O)(COC)COC)[C@@H](O)[C@H]2O)n1 [Example 5244] | < 500 nM
COCC(O)(COC)[C@H]1C[C@@H](Nc2nc(NC[C@@H](C)OC)nc(C)c2-c2nc3c(C)nccc3s2)[C@H](O)[C@@H]1O [Example 5245] | < 500 nM
COCC(O)(COC)[C@H]1C[C@@H](Nc2nc(NCC3CC3)nc(C)c2-c2nc3c(C)nccc3s2)[C@H](O)[C@@H]1O [Example 5246] | < 500 nM
COCC(O)(COC)[C@H]1C[C@@H](Nc2nc(NCc3c(F)cc(F)cc3F)nc(C)c2-c2nc3c(C)nccc3s2)[C@H](O)[C@@H]1O [Example 5247] | < 500 nM
CCC(O)(CC)[C@H]1C[C@@H](Nc2nc(NCCSC(C)(C)C)nc(C)c2-c2nc3c(C)nccc3s2)[C@H](O)[C@@H]1O [Example 5248] | < 500 nM
Cc1nc(NCCS(C)(=O)=O)nc(N[C@@H]2C[C@H](C(C)(C)O)[C@@H](O)[C@H]2O)c1-c1nc2c(C)nccc2s1 [Example 5249] | 500 to 5000 nM
Cc1nc(NCCS(=O)(=O)C(C)(C)C)nc(N[C@@H]2C[C@H](C(C)(C)O)[C@@H](O)[C@H]2O)c1-c1nc2c(C)nccc2s1 [Example 5250] | < 500 nM
CSCC[C@@H](CO)Nc1nc(C)c(-c2nc3c(C)nccc3s2)c(N[C@@H]2C[C@H](C(C)(C)O)[C@@H](O)[C@H]2O)n1 [Example 5251] | < 500 nM
Cc1nc(NCc2cn(C)cn2)nc(N[C@@H]2C[C@H](C(C)(C)O)[C@@H](O)[C@H]2O)c1-c1nc2c(C)nccc2s1 [Example 5252] | < 500 nM
CCSC[C@@H](C)Nc1nc(C)c(-c2nc3c(C)nccc3s2)c(N[C@@H]2C[C@H](C(C)(C)O)[C@@H](O)[C@H]2O)n1 [Example 5253] | < 500 nM
Cc1nc(N[C@H](C)CSC(C)(C)C)nc(N[C@@H]2C[C@H](C(C)(C)O)[C@@H](O)[C@H]2O)c1-c1nc2c(C)nccc2s1 [Example 5254] | < 500 nM

Compound | EC90
CCS[C@H](C)CNc1nc(C)c(-c2nc3c(C)nccc3s2)c(N[C@@H]2C[C@H](C(C)(C)O)[C@@H](O)[C@H]2O)n1 [Example 5255] | < 500 nM
Cc1nc(N[C@H](C)COC(C)C)nc(N[C@@H]2C[C@H](C(C)(C)O)[C@@H](O)[C@H]2O)c1-c1nc2c(C)nccc2s1 [Example 5256] | < 500 nM
COC1(CNc2nc(C)c(-c3nc4c(C)nccc4s3)c(N[C@@H]3C[C@H](C(C)(C)O)[C@@H](O)[C@H]3O)n2)CC1 [Example 5257] | < 500 nM
Cc1nc(N)nc(N[C@@H]2C[C@H](CO)[C@@H](O)[C@H]2O)c1-c1nc2c(C3CC3)nccc2s1 [Example 5258] | < 500 nM
Cc1nc(NC[C@@H](C)OC(C)C)nc(N[C@@H]2C[C@H](C(C)(C)O)[C@@H](O)[C@H]2O)c1-c1nc2c(C)nccc2s1 [Example 5259] | < 500 nM
C#CCCNc1nc(C)c(-c2nc3c(C)nccc3s2)c(N[C@@H]2C[C@H](C(C)(C)O)[C@@H](O)[C@H]2O)n1 [Example 5260] | < 500 nM
CSCCCNc1nc(C)c(-c2nc3c(C)nccc3s2)c(N[C@@H]2C[C@H](C(C)(C)O)[C@@H](O)[C@H]2O)n1 [Example 5261] | < 500 nM
Cc1nc(NCCC(C)(C)C)nc(N[C@@H]2C[C@H](C(C)(C)O)[C@@H](O)[C@H]2O)c1-c1nc2c(C)nccc2s1 [Example 5262] | < 500 nM
COC[C@@H](C)Nc1nc(C)c(-c2nc3c(C)nccc3s2)c(N[C@@H]2C[C@H](C(C)(C)O)[C@@H](OC)[C@H]2OC)n1 [Example 5263] | < 500 nM
CO[C@@H]1[C@H](OC)[C@@H](C(C)(C)O)C[C@H]1Nc1nc(NC[C@@H](C)OC)nc(C)c1-c1nc2c(C)nccc2s1 [Example 5264] | < 500 nM
CO[C@@H]1[C@H](OC)[C@@H](C(C)(C)O)C[C@H]1Nc1nc(NCC2CC2)nc(C)c1-c1nc2c(C)nccc2s1 [Example 5265] | < 500 nM
CO[C@@H]1[C@H](OC)[C@@H](C(C)(C)O)C[C@H]1Nc1nc(NCc2c(F)cc(F)cc2F)nc(C)c1-c1nc2c(C)nccc2s1 [Example 5266] | < 500 nM
CCSCCNc1nc(C)c(-c2nc3c(C)nccc3s2)c(N[C@@H]2C[C@H](C(C)(C)O)[C@@H](OC)[C@H]2OC)n1 [Example 5267] | < 500 nM
CO[C@@H]1[C@H](OC)[C@@H](C(C)(C)O)C[C@H]1Nc1nc(N)nc(C)c1-c1nc2c(C)nccc2s1 [Example 5268] | < 500 nM
CCC(O)(CC)[C@H]1C[C@@H](Nc2nc(NCCC3CC3)nc(C)c2-c2nc3c(C)nccc3s2)[C@H](O)[C@@H]1O [Example 5269] | 500 to 5000 nM
CCC(O)(CC)[C@H]1C[C@@H](Nc2nc(NCC3(C)CC3)nc(C)c2-c2nc3c(C)nccc3s2)[C@H](O)[C@@H]1O [Example 5270] | < 500 nM
CCC(O)(CC)[C@H]1C[C@@H](Nc2nc(NC3CCOCC3)nc(C)c2-c2nc3c(C)nccc3s2)[C@H](O)[C@@H]1O [Example 5271] | < 500 nM
CCCCCNc1nc(C)c(-c2nc3c(C)nccc3s2)c(N[C@@H]2C[C@H](C(O)(CC)CC)[C@@H](O)[C@H]2O)n1 [Example 5272] | < 500 nM
CCC(O)(CC)[C@H]1C[C@@H](Nc2nc(N)nc(C)c2-c2nc3c(C)nccc3s2)[C@H](O)[C@@H]1O [Example 5273] | < 500 nM
COC[C@@H](C)Nc1nc(C)c(-c2nc3c(C)nccc3s2)c(N[C@@H]2C[C@H](C(C)(C)OC)[C@@H](O)[C@H]2O)n1 [Example 5274] | < 500 nM
CO[C@H](C)CNc1nc(C)c(-c2nc3c(C)nccc3s2)c(N[C@@H]2C[C@H](C(C)(C)OC)[C@@H](O)[C@H]2O)n1 [Example 5275] | < 500 nM
